# Source: patent US3996359A, “Novel stereoisomeric component A of stereoisomeric mixtures of 2'-unsymmetrical 16,17-methylenedioxy steroid 21-acylates, compositions thereof, and method of treating therewith” (AB Bofors, priority 1972, dated 1976)
# System: rats subjected to adrenalectomy (granuloma around implanted cotton wads)
# Experiment: granulom test (cotton-pellet test) on rats subjected to adrenalectomy: granuloma growth, thymus weight, body weight increase
# Format: in vivo, rat (Sprague-Dawley)
# Conditions: for Dose required to obtain 50% inhibition of Granuloma growth: Table 3, adrenalectomized young male Sprague-Dawley rats, topical in implanted cotton wads, day 8; for Dose required to obtain 25% inhibition of Body weight Increase / Dose required to obtain 50% inhibition of Thymus weight: 11520 min
# Text: In the following this active stereoisomeric component will always be designated B. As regards the steroids referred to in connection with the present invention the stereoisomeric mixture as well as the individual stereoisomeric components A and B have been investigated with regard to antiinflammatory activity in granulom test on rats subjected to adrenalectomy. The experimental procedure used corresponds largely to that described by G. Engelhardt: Arzneimittel-Forschung, 13, p. 588, 1963. According to this procedure the test substances are applied topically in the implanted cottom wads. It is thereby possible to study the local antiinflammatory effect in granulomas and also systemic effects in the form of retrogression of thymus and inhibition of bodyweight growth.
# Young male rats of the Sprague-Dawley strain weighing about 110-130 g were subjected to adrenalectomy under ether narcosis. Two sterilized cottom wads of each about 6 mg were implanted simultaneously subcutaneously on the lateral side of the spinal. After awakening the animals were stored 5 per cage and were supplied with normal food and 1% sodium chloride solution as drinking water. On the eighth test day the animals were sacrificed by ether narcosis. The granuloma formed around the cotton wads were carefully recovered and thymus and body weights were measured. The two granuloma from each animal were dried over night at 80° C and weighed. After subtraction of the initial weight of the cotton wads the weight increase was used as a measure of the granulom growth.
# The test substances were used dissolved in ethyl acetate. Under aseptic conditions 0.05 ml of said solutions were injected into each of the cotton wads, whereafter the solvent was allowed to evaporate in the desiccator. Normally 3 concentrations of each test substance with the standard doses 3.3, 30 and 270 γ/animal were investigated. Each test group normally comprised 10 rats. The cotton wads of the control group were injected with only ethyl acetate, but were in other respects treated in the same way. When considering the effects of the test substances the average values of granulom growth, thymus weight and body weight increase day 0-8 were measured in each group in absolute figures and in % of the corresponding figure of the control group. Dose-response curves were drafted and used for estimating the doses giving 50 % reduction of granulom growth and of thymus weight and 25 % decrease of body weight increase.
# The following Table 4 discloses the results of the cotton-pellet test hereinbefore described, giving in addition figures for the therapeutic ratios, that is, the ratios of the ED50 for thymus weight inhibition divided by the ED50 for granuloma formation inhibition, and the ED25 for body weight increase inhibition over the ED50 for granuloma formation inhibition. As will be recognized, the higher the number for the therapeutic ratio, the more favorable the therapeutic ratio. […] As will be noted for the table, the therapeutic ratio for thymus over granuloma for the Component A esters is 4.2, 7.1, 4.5, 2.6, 2.2, 1.7, 2.5 and 1.7 times as good as it is for the corresponding Component B ester isomer, whereas the therapeutic ratio for the Component A ester isomer as far as body weight is granuloma 2.7, 3.3, 9.8, 6.4, 2.3, 2.8, 3.3 and 2.8 times as favorable as for the corresponding Component B ester isomer.
Structure (SMILES),Dose required to obtain 50% inhibition of Granuloma growth,"Dose required to obtain 25% inhibition of Body weight Increase (rat, in vivo)","Dose required to obtain 50% inhibition of Thymus weight (rat, in vivo)","ED25 body weight increase inhibition (rat, in vivo) [µg/animal]","ED50 thymus weight inhibition (rat, in vivo) [µg/animal]","Therapeutic ratio body weight/granuloma (rat, in vivo)","Therapeutic ratio thymus/granuloma (rat, in vivo)","Therapeutic ratio body weight/granuloma (Table 4, ED25 body weight increase inhibition over ED50 granuloma formation inhibition)","Therapeutic ratio thymus/granuloma (Table 4, ED50 thymus weight inhibition divided by ED50 granuloma formation inhibition)"
"CCCCCC1O[C@@H]2C[C@H]3[C@@H]4CCC5=CC(=O)C=C[C@]5(C)[C@@]4(F)[C@@H](O)C[C@]3(C)[C@]2(C(=O)CO)O1 (single isomer, unassigned) [5 B]",10 γ/animal,> 270 γ/animal,90 γ/animal,,,,,,
"CCCC1O[C@@H]2C[C@H]3[C@@H]4CCC5=CC(=O)C=C[C@]5(C)[C@H]4[C@@H](O)C[C@]3(C)[C@]2(C(=O)COC(=O)c2cc3ccccc3o2)O1 (single isomer, unassigned) [28 B]",,,,35,60,> 11.7,> 20.0,,
"CCCC1O[C@@H]2C[C@H]3[C@@H]4CCC5=CC(=O)C=C[C@]5(C)[C@@]4(F)[C@@H](O)C[C@]3(C)[C@]2(C(=O)COC(=O)c2cccnc2)O1 (single isomer, unassigned) [21 A]",< 3 γ/animal,70 γ/animal,70 γ/animal,,,,,,
"CCCCC1O[C@@H]2C[C@H]3[C@@H]4CCC5=CC(=O)C=C[C@]5(C)[C@@]4(F)[C@@H](O)C[C@]3(C)[C@]2(C(=O)CO)O1 (single isomer, unassigned) [4 B]",< 3 γ/animal,100 γ/animal,50 γ/animal,,,,,,
"CC1(C)O[C@@H]2C[C@H]3[C@@H]4CCC5=CC(=O)C=C[C@]5(C)[C@H]4[C@@H](O)C[C@]3(C)[C@]2(C(=O)CO)O1 [Prednacinolone acetonide, reference compound]",270 γ/animal,> 270 γ/animal,105 γ/animal,,,,,,
"CCCC1O[C@@H]2C[C@H]3[C@@H]4CCC5=CC(=O)C=C[C@]5(C)[C@H]4[C@@H](O)C[C@]3(C)[C@]2(C(=O)CO)O1 (single isomer, unassigned) [12 B]",40 γ/animal,50 γ/animal,70 γ/animal,,,,,,
"CCCCCC1O[C@@H]2C[C@H]3[C@@H]4CCC5=CC(=O)C=C[C@]5(C)[C@@]4(F)[C@@H](O)C[C@]3(C)[C@]2(C(=O)CO)O1 (single isomer, unassigned) [5 A]",30 γ/animal,> 270 γ/animal,90 γ/animal,,,,,,
CCCC1OC2CC3C4CC(F)C5=CC(=O)C=CC5(C)C4(F)C(O)CC3(C)C2(C(=O)COC(=O)c2cc3ccccc3o2)O1 (mixture of isomers) [25 A+B],< 3 γ/animal,10 γ/animal,10 γ/animal,,,,,,
CCCCC(=O)OCC(=O)C12OC(CCC)OC1CC1C3CCC4=CC(=O)C=CC4(C)C3(F)C(O)CC12C (mixture of isomers) [22 A+B],10 γ/animal,30 γ/animal,50 γ/animal,,,,,,
"CCCC1O[C@@H]2C[C@H]3[C@@H]4CCC5=CC(=O)C=C[C@]5(C)[C@H]4[C@@H](O)C[C@]3(C)[C@]2(C(=O)COC(=O)c2cc3ccccc3o2)O1 (single isomer, unassigned) [28 A]",,,,100,100,> 33.3,> 33.3,,
"CCCCC(=O)OCC(=O)[C@@]12OC(CCC)O[C@@H]1C[C@H]1[C@@H]3CCC4=CC(=O)C=C[C@]4(C)[C@@]3(F)[C@@H](O)C[C@@]12C (single isomer, unassigned) [22 B]",< 3 γ/animal,5 γ/animal,35 γ/animal,3,35,> 1.7,> 11.7,,
CCCC1OC2CC3C4CC(F)C5=CC(=O)C=CC5(C)C4(F)C(O)CC3(C)C2(C(=O)CO)O1 (mixture of isomers) [8 A+B],5 γ/animal,50 γ/animal,10 γ/animal,,,,,,
CCCCCC1O[C@@H]2C[C@H]3[C@@H]4CCC5=CC(=O)C=C[C@]5(C)[C@H]4[C@@H](O)C[C@]3(C)[C@]2(C(=O)CO)O1 (stereo partly shown) [13 A+B],10 γ/animal,90 γ/animal,175 γ/animal,,,,,,
"CCCC1O[C@@H]2C[C@H]3[C@@H]4CCC5=CC(=O)C=C[C@]5(C)[C@@]4(F)[C@@H](O)C[C@]3(C)[C@]2(C(=O)COC(=O)c2cc3ccccc3o2)O1 (single isomer, unassigned) [20 B]",< 3 γ/animal,5 γ/animal,20 γ/animal,5,20,> 1.7,> 6.7,,
"CCCCC(=O)OCC(=O)[C@@]12OC(C)O[C@@H]1C[C@H]1[C@@H]3CCC4=CC(=O)C=C[C@]4(C)[C@@]3(F)[C@@H](O)C[C@@]12C (single isomer, unassigned) [18 A]",< 3 γ/animal,33 γ/animal,70 γ/animal,33,70,> 11.0,> 23.3,,
CC1O[C@@H]2C[C@H]3[C@@H]4C[C@H](F)C5=CC(=O)C=C[C@]5(C)[C@@]4(F)[C@@H](O)C[C@]3(C)[C@]2(C(=O)COC(=O)c2cc3ccccc3o2)O1 (stereo partly shown) [23 B],,,,3,4,,,> 1.0,> 1.3
"CCCC1O[C@@H]2C[C@H]3[C@@H]4CCC5=CC(=O)C=C[C@]5(C)[C@H]4[C@@H](O)C[C@]3(C)[C@]2(C(=O)COC(C)=O)O1 (single isomer, unassigned) [27 A]",< 3 γ/animal,100 γ/animal,100 γ/animal,100,100,> 33.3,> 33.3,,
"CCCC1O[C@@H]2C[C@H]3[C@@H]4C[C@H](F)C5=CC(=O)C=C[C@]5(C)[C@@]4(F)[C@@H](O)C[C@]3(C)[C@]2(C(=O)CO)O1 (single isomer, unassigned) [8 B]",4 γ/animal,50 γ/animal,10 γ/animal,,,,,,
"CC1O[C@@H]2C[C@H]3[C@@H]4C[C@H](F)C5=CC(=O)C=C[C@]5(C)[C@@]4(F)[C@@H](O)C[C@]3(C)[C@]2(C(=O)CO)O1 (single isomer, unassigned) [7 A]",15 γ/animal,20 γ/animal,12 γ/animal,,,,,,
"CCCC1O[C@@H]2C[C@H]3[C@@H]4CCC5=CC(=O)C=C[C@]5(C)[C@@]4(F)[C@@H](O)C[C@]3(C)[C@]2(C(=O)CO)O1 (single isomer, unassigned) [3 A]",25 γ/animal,> 30 γ/animal,> 30 γ/animal,,,,,,
"CCCC1O[C@@H]2C[C@H]3[C@@H]4CCC5=CC(=O)C=C[C@]5(C)[C@@]4(F)[C@@H](O)C[C@]3(C)[C@]2(C(=O)COC(=O)c2cccnc2)O1 (single isomer, unassigned) [21 B]",< 3 γ/animal,5 γ/animal,10 γ/animal,,,,,,
